From US12370143B2, “Compound or salt thereof and lipid particles” (FUJIFILM Corporation, priority 2018, dated 2025)
pIC50: −log10 of the molar value. Where two headings read alike, the source gives them in different places.

How the values were obtained:
[1] = tested on: Factor VII (FVII) protein; experiment: Measurement of Factor VII (FVII) protein in mouse plasma after FVII-siRNA lipid particles; type: in vivo, C57BL6/J mice; settings: 0.1 mg/kg caudal vein, plasma 24 hours after administration, PBS group = 100%
Summary of the method: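 C57BL6/J mice (n=3) received FVII-siRNA nucleic acid lipid particles at 0.1 mg/kg into the tail vein; controls got PBS. Each value is the percentage of the PBS-group FVII level.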

[2] = tested on: DMS273 cells constantly expressing Luc; experiment: Target reporter protein (Luc) knockdown in cell, reporter protein assay; type: cell-based; settings: Homo sapiens, DMS-273
Summary of the method: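 Nucleic acid lipid particles added at final 0.1 to 100 nmol/L to DMS273 human SCLC cells stably expressing Luc2, 24 hr exposure then 24 hr further culture after medium change. Luc quantified by Steady Glo luminescence after viable cell count; knockdown efficiency calculated and IC50 taken as concentration giving 50% Luc reduction.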

[3] = Encapsulation rate of siRNA in nucleic acid lipid particles (Luc2-siRNA); type: physicochemical; settings: compound/DSPC/cholesterol/DMG-PEG2000 50/10/38.5/1.5
Summary of the method: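 Encapsulation rate was calculated as (total − outer-phase siRNA)/total ×100. Total siRNA was quantified spectrophotometrically after lipid-dissolving ethanol precipitation, and unencapsulated siRNA by RiboGreen in TE (ex 485/em 535 nm). The particles were test lipid/DSPC/cholesterol/DMG-PEG2000 at 50/10/38.5/1.5, formed by microfluidic mixing with Luc2-siRNA at pH 4 and dialyzed against PBS.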

[4] = Nucleic acid encapsulation rate of nucleic acid lipid particles (FVII-siRNA); type: physicochemical
Summary of the method: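 Total nucleic acid was measured by adding 30 μL of 3 mol/L sodium acetate and 9 μL of glycogen to 60 μL of FVII-siRNA lipid particles, then precipitating with 1.5 mL ethanol, centrifuging, air-drying, redissolving in water, and reading on a Nanodrop. Outer-phase nucleic acid came from a RiboGreen assay (ex 485 nm, em 535 nm) on samples diluted 10,000× in 1×TE. Encapsulation (%) = (total − outer)/total × 100.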

[5] = Particle size of nucleic acid lipid particles (Luc2-siRNA); type: physicochemical; settings: compound/DSPC/cholesterol/DMG-PEG2000 50/10/38.5/1.5
Summary of the method: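 Lipid particles formed from oil phase (test lipid/DSPC/cholesterol/DMG-PEG2000, 50/10/38.5/1.5 molar, 20 mmol/L total in ethanol) micromixed 1:3 with Luc2-siRNA in pH 4 acetate buffer (19.7 μmol/L); siRNA/lipid 339 mol/mol, PBS-diluted and dialyzed. Size measured on ELS-Z2 dynamic light scattering.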

[6] = Particle size of nucleic acid lipid particles (FVII-siRNA); type: physicochemical
Summary of the method: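 Lipid particles formed by micromixing ethanolic ionizable lipid/DSPC/cholesterol/DMG-PEG2000 (50/10/38.5/1.5 mol) with siRNA in pH 4 acetate buffer (3:1 water:oil), diluted with PBS and dialysed against PBS.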

[7] = Luc2-siRNA lipid particles using the compound, siRNA 0.1 to 100 nmol/L, concentration at which Luc expression is knocked down to 50%, read-out: IC50

Row | SMILES | pIC50 [2, 7] | Nucleic acid encapsulation rate [3] | Nucleic acid encapsulation rate [4] | Particle size (nm) [5] | Particle size (nm) [6] | Relative amount of FVII protein (%) [1] | pIC50 [2]
1 | CCCC/C=C\CCCCCCCC(=O)OCCCCCCC(CCCCCCOC(=O)CCCCCCC/C=C\CCCC)OC(=O)OCCN(CC)CCN(CC)CC [Example 47, 7-(((2-((2-(Diethylamino)ethyl)(ethyl)amino)ethoxy)carbonyl)oxy)tridecane-1,13-diyl(9Z,9′Z)-bis(tetradec-9-enoate)] | 7.72 | 74% | 82% | 72.3 nm | 79.4 nm | 11% | 
2 | CCCCCCCCCCCCC(CCCCCCCCC(=O)OCC(CCCC)CCCCCC)OC(=O)OCCN(CC)CCN(CC)CC (stereo not drawn) [Example 50, 2-Butyloctyl 12-dodecyl-3,6-diethyl-10-oxo-9,11-dioxa-3,6-diazahenicosan-21-oate] | 7.89 | 79% | 84% | 65.6 nm | 65.4 nm | 11% | 
3 | CCCCC/C=C\C/C=C\CCCCCCCCC(CCCCCCCC/C=C\C/C=C\CCCCC)OC(=O)OCCN(CCN(CC)CC)Cc1ccccc1 [Example 51, 2-(Benzyl(2-(diethylamino)ethyl)amino)ethyl((6Z,9Z,28Z,31Z)-heptatriaconta-6,9,28,31-tetraen-19-yl)carbonate] | 7.43 | 76% | 84% | 69 nm | 71 nm | 19% | 
4 | CCCCC/C=C\C/C=C\CCCCCCCCC(CCCCCCCC/C=C\C/C=C\CCCCC)OC(=O)OCCN(CCCCCCCC)CCN(C)C [Example 52, 2-((2-(Dimethylamino)ethyl)(octyl)amino)ethyl((6Z,9Z,28Z,31Z)-heptatriaconta-6,9,28,31-tetraen-19-yl)carbonate] | 7.57 | 80% | 83% | 79.9 nm | 73.1 nm | 19% | 
5 | CCCCCCCCCCCCC(CCCCCCCCC(=O)OCC(CCCC)CCCCCC)OC(=O)OCCN(CCN(CC)CC)C(C)C (stereo not drawn) [Example 61, 2-Butyloctyl 12-dodecyl-3-ethyl-6-isopropyl-10-oxo-9,11-dioxa-3,6-diazahenicosan-21-oate] | 8.15 | 75% | 78% | 60.9 nm | 67.7 nm | 8% | 
6 | CCCCCCCCCCC(CCCCCCCCCCC(=O)OCC(CCCC)CCCCCC)OC(=O)OCCN(CC)CCN(CC)CC (stereo not drawn) [Example 66, 2-Butyloctyl 12-decyl-3,6-diethyl-10-oxo-9,11-dioxa-3,6-diazatricosan-23-oate] | 7.55 | 73% | 98% | 69.8 nm | 85.4 nm | 17% | 
7 | CCCCCCCCCCC(CCCCCCCCC(=O)OCC(CCCC)CCCCCC)OC(=O)OCCN(CC)CCN(CC)CC (stereo not drawn) [Example 68, 2-Butyloctyl 12-decyl-3,6-diethyl-10-oxo-9,11-dioxa-3,6-diazahenicosan-21-oate] | 7.43 | 97% | 91% | 70.7 nm | 84.5 nm | 9% | 
8 | CCCCCCCCCCC(CCCCCCCCC(=O)OCC(CCCC)CCCCCC)OC(=O)OCCN(CCN(CC)CC)C(C)C (stereo not drawn) [Example 69, 2-Butyloctyl 12-decyl-3-ethyl-6-isopropyl-10-oxo-9,11-dioxa-3,6-diazahenicosan-21-oate] | 7.55 | 98% | 97% | 67.6 nm | 86.8 nm | 6% | 
9 | CCCCCCCCCC(CCCCCCCCC(=O)OCC(CCCC)CCCCCC)OC(=O)OCCN(CC)CCN(CC)CC (stereo not drawn) [Example 75, 2-Butyloctyl 3,6-diethyl-12-nonyl-10-oxo-9,11-dioxa-3,6-diazahenicosan-21-oate] | 8.10 | 76% | 83% | 65.4 nm | 79.1 nm | 17% | 
10 | CCCCCCCCCC(=O)OCCCCCCC(CCCCCCOC(=O)CC(CCCCCCC)CCCCCCC)OC(=O)OCCN(CC)CCN(CC)CC (stereo not drawn) [Example 78, 12-(6-(Decanoyloxy)hexyl)-3,6-diethyl-10-oxo-9,11-dioxa-3,6-diazooctadecan-18-yl 3-heptyldecanoate] |  | 75% | 78% | 71.7 nm | 74.2 nm | 10% | 7.80

Continued, in another order:

Row | pIC50 [2, 7] | Nucleic acid encapsulation rate [3] | Nucleic acid encapsulation rate [4] | Particle size (nm) [5] | Particle size (nm) [6] | SMILES | Relative amount of FVII protein (%) [1] | pIC50 [2]
11 | 8.30 | 75% | 86% | 61.5 nm | 65.7 nm | CCCCC/C=C\C/C=C\CCCCCCCCC(CCCCCCCC/C=C\C/C=C\CCCCC)OC(=O)OCCN(CCC)CCN(C)C(C)C [Example 64] | 10% | 
12 | 7.51 | 81% | 85% | 74.2 nm | 72.4 nm | CCCCCCC(CCCC)COC(=O)CCCCCCCCC(CCCCCCCCC(=O)OCC(CCCC)CCCCCC)OC(=O)OCCN(CC)CCN(CC)CC (stereo not drawn) [Example 72, Bis(2-butyloctyl)10-(((2-((2-(diethylamino)ethyl)(ethyl)amino)ethoxy)carbonyl)oxy)nonadecanedioate] | 6% | 
13 | 7.47 | 79% | 87% | 69.2 nm | 69.3 nm | CCCCCCCCCC(=O)OCCN(CCOC(=O)OC(CCCCCC)CCCCCCCCC(=O)OCC(CCCC)CCCCCC)CCN(CC)CC (stereo not drawn) [Example 87, 2-Butyloctyl 6-(2-(decanoyloxy)ethyl)-3-ethyl-12-hexyl-10-oxo-9,11-dioxa-3,6-diazahenicosan-21-oate] | 3% | 
14 | 7.64 | 81% | 83% | 74.6 nm | 78.7 nm | CCCCCCCC(=O)OCCN(CCOC(=O)OC(CCCCCC)CCCCCCCCC(=O)OCC(CCCC)CCCCCC)CCN(CC)CC (stereo not drawn) [Example 88, 2-Butyloctyl 3-ethyl-12-hexyl-6-(2-(octanoyloxy)ethyl)-10-oxo-9,11-dioxa-3,6-diazahenicosan-21-oate] | 2% | 
15 | 7.66 | 70% | 73% | 70.4 nm | 67.8 nm | CCCCCCCC/C=C\CCCCCCCC(=O)OCCN(CCCN(CC)CC)CCOC(=O)OC(CCCCCC)CCCCCCCCC(=O)OCC(CCCC)CCCCCC (stereo not drawn) [Example 93, 2-Butyloctyl 3-ethyl-13-hexyl-7-(2-(oleoyloxy)ethyl)-11-oxo-10,12-dioxa-3,7-diazadocosan-22-oate] | 7% | 
16 | 7.41 | 76% | 75% | 72.7 nm | 86.1 nm | CCCCCCCCC(CCCCCC)COC(=O)CCCCCCC(CCCCCC)OC(=O)OCCN(CCN(CC)CC)C(C)C (stereo not drawn) [Example 94, 2-Hexyldecyl 3-ethyl-12-hexyl-6-isopropyl-10-oxo-9,11-dioxa-3,6-diazanonadecan-19-oate] | 8% | 
17 | 7.59 | 82% | 80% | 76.7 nm | 85.1 nm | CCCCCCCCC(CCCCCC)COC(=O)CCCCCCCCC(CCCCCC)OC(=O)OCCN(CCOC(=O)CCCCC)CCN(CC)CC (stereo not drawn) [Example 100, 2-Hexyldecyl 3-ethyl-6-(2-(hexanoyloxy)ethyl)-12-hexyl-10-oxo-9,11-dioxa-3,6-diazahenicosan-21-oate] | 2% | 
